Results: US20260015350A1, “AZAQUINAZOLINE PAN-KRAS INHIBITORS” (Mirati Therapeutics, Inc., priority 2022, published 2026)

Key:
KRas^G12D = biological target: T1, KRas^G12D (Homo sapiens, UniProt P01116, G12D); assay: KRas binding assay (TR-FRET tracer displacement), KRas G12D
T1 construct: Biotinylated KRas (corresponding to amino acids 1-169, produced at Accelegan Inc.); biotin (biotinylated); purchased Accelegan Inc

KRas^G12R = biological target: T2, KRas^G12R (Homo sapiens, UniProt P01116, G12R); assay: KRas binding assay (TR-FRET tracer displacement), KRas G12R
T2 construct: Biotinylated KRas (corresponding to amino acids 1-169, produced at Accelegan Inc.); biotin (biotinylated); purchased Accelegan Inc

KRas^G12V = biological target: T3, KRas^G12V (Homo sapiens, UniProt P01116, G12V); assay: KRas binding assay (TR-FRET tracer displacement), KRas G12V
T3 construct: Biotinylated KRas (corresponding to amino acids 1-169, produced at Accelegan Inc.); biotin (biotinylated); purchased Accelegan Inc

[1] = test system: KRas-mediated phosphorylation of ERK in MKN1 cells; assay: Inhibition of KRas-mediated phosphorylation of ERK (Cisbio HTRF pERK), MKN1 cells; format: cell-based; conditions: Homo sapiens, MKN-1
Summary of the method: (§1)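 Day 1 seeding: 6,000 cells per well, RPMI/10% FBS, left overnight at 37° C. with 5% CO2. Plates then stood covered for 4 h at room temperature prior to HTRF detection of pERK.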

[2] = test system: KRas-mediated phosphorylation of ERK in PSN1 cells; assay: Inhibition of KRas-mediated phosphorylation of ERK (Cisbio HTRF pERK), PSN1 cells; format: cell-based; conditions: Homo sapiens
Summary of the method: as §1

[3] = test system: KRas-mediated phosphorylation of ERK in AsPC-1 cells; assay: Inhibition of KRas-mediated phosphorylation of ERK (Cisbio HTRF pERK), AsPC-1 cells; format: cell-based; conditions: for IC50: HTRF pERK; for inhibition at 0.1 µM: ASPC1, 3 h
Summary of the method: (§2)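 Phosphorylated ERK was quantified by HTRF using d2-conjugate and Cryptate antibodies added to lysates for 2 hrs at room temperature.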

[4] = test system: KRas-mediated phosphorylation of ERK in H727 cells; assay: Inhibition of KRas-mediated phosphorylation of ERK (Cisbio HTRF pERK), H727 cells; format: cell-based; conditions: for IC50: HTRF pERK; for inhibition at 0.1 µM: NCI-H727, 3 h
Summary of the method: as §2

[5] = test system: KRas-mediated phosphorylation of ERK in A549 cells; assay: Inhibition of KRas-mediated phosphorylation of ERK (Cisbio HTRF pERK), A549 cells; format: cell-based; conditions: for IC50 / inhibition at 0.1 µM: Homo sapiens; for IC50: HTRF pERK; for inhibition at 0.1 µM: A549, 3 h
Summary of the method: (§3)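 Using 6,000 cells per well, compounds are applied for 3 hrs and cells then lysed at 4° C with shaking for 40 mins. Phospho-ERK is measured by HTRF after 2 hrs of lysate incubation with the d2/Cryptate antibody mixture.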

[6] = test system: KRas-mediated phosphorylation of ERK in H460 cells; assay: Inhibition of KRas-mediated phosphorylation of ERK (Cisbio HTRF pERK), H460 cells; format: cell-based; conditions: for IC50 / inhibition at 0.1 µM: Homo sapiens; for IC50: NCI-H460, HTRF pERK; for inhibition at 0.1 µM: NCI-H460, 3 h
Summary of the method: as §2

[7] = test system: KRas-mediated phosphorylation of ERK in HCT116 cells; assay: Inhibition of KRas-mediated phosphorylation of ERK (Cisbio HTRF pERK), HCT116 cells; format: cell-based; conditions: for IC50 / inhibition at 0.1 µM: Homo sapiens; for IC50: HCT-116, HTRF pERK; for inhibition at 0.1 µM: HCT-116, 3 h
Summary of the method: as §3

[8] = test system: KRas-mediated phosphorylation of ERK in H358 cells; assay: Inhibition of KRas-mediated phosphorylation of ERK (Cisbio HTRF pERK), H358 cells; format: cell-based; conditions: for IC50 / inhibition at 0.1 µM: Homo sapiens; for IC50: NCI-H358, HTRF pERK; for inhibition at 0.1 µM: NCI-H358, 3 h
Summary of the method: as §2

[9] = single point, 100 nM compound, 3 hrs, 0.1 µM
[10] = Homo sapiens, ASPC1, AsPC-1 cells
[11] = Homo sapiens, NCI-H727, H727 cells
[12] = single point, 100 nM compound, 3 hrs
[13] = Homo sapiens, single point, 100 nM compound, 3 hrs, AsPC-1 cells
[14] = Homo sapiens, single point, 100 nM compound, 3 hrs, H727 cells

T1 sequence (P01116 1-169 isoform P01116-2 G12D): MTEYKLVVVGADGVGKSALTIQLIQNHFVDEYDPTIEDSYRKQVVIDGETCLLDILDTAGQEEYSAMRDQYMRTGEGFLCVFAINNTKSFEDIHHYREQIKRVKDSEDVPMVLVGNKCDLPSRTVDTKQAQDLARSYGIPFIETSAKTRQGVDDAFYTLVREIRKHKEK
T3 sequence (P01116 1-169 isoform P01116-2 G12V): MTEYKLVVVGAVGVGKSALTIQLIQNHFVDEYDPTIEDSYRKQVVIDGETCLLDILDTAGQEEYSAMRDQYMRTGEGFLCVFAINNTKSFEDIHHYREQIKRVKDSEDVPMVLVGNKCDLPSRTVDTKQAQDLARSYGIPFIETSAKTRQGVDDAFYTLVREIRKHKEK
T2 sequence (P01116 1-169 isoform P01116-2 G12R): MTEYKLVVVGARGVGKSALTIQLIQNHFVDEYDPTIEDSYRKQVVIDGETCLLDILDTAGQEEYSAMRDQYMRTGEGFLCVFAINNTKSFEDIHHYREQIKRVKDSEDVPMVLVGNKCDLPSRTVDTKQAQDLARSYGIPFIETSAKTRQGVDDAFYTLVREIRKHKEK

IC50 (KRas^G12D)	IC50 (KRas^G12R)	IC50 (KRas^G12V)	IC50 [1]	IC50 [2]	IC50 [5]	IC50 [6]	IC50 [7]	IC50 [3, 10]	IC50 [4, 11]	Structure (SMILES)	inhibition at 0.1 µM [5, 12]	inhibition at 0.1 µM [6, 12]	inhibition at 0.1 µM [7, 12]	inhibition at 0.1 µM [8, 12]	inhibition at 0.1 µM [3, 13]	inhibition at 0.1 µM [4, 14]	further results
7 nM	< 2 nM	< 2 nM	1 nM	> 10000 nM	4 nM	5 nM	24 nM	–	–	CCc1c(F)ccc2cc(O)cc(-c3ncc4c(N5CC6CCC(C5)C6C#N)nc(OC[C@@]56CCCN5C[C@H](F)C6)nc4c3F)c12 (single isomer, unassigned) [Example 561]	–	–	–	–	–	–	IC50 ([3]; AsPC-1 cells): 80 nM; Inhibition (HTRF % at 100 nM) of KRas-mediated Phosphorylation of ERK, AsPC-1 ([3]; single point, 100 nM compound, 3 hrs, AsPC-1 cells, 0.1 µM): 30%; IC50 ([4]; H727 cells): 13 nM; Inhibition (HTRF % at 100 nM) of KRas-mediated Phosphorylation of ERK, H727 ([4]; single point, 100 nM compound, 3 hrs, H727 cells, 0.1 µM): 74%; Inhibition (HTRF % at 100 nM) of KRas-mediated Phosphorylation of ERK, A549 [5, 9]: 103%; Inhibition (HTRF % at 100 nM) of KRas-mediated Phosphorylation of ERK, H460 [6, 9]: 99%; Inhibition (HTRF % at 100 nM) of KRas-mediated Phosphorylation of ERK, HCT116 [7, 9]: 63%; IC50 [8]: 3 nM; Inhibition (HTRF % at 100 nM) of KRas-mediated Phosphorylation of ERK, H358 [8, 9]: 99%
12 nM	< 2 nM	3 nM	56 nM	> 10000 nM	542 nM	–	–	1770 nM	280 nM	CCc1c(F)ccc2cc(O)cc(-c3ncc4c(N5C[C@H]6C[C@@H](C5)C(O)C6O)nc(OC[C@@]56CCCN5C[C@H](F)C6)nc4c3F)c12 (single isomer, unassigned) [Example 570]	26%	38%	26%	69%	–	–	–
22 nM	4 nM	3 nM	25 nM	> 10000 nM	–	–	–	455 nM	79 nM	CCc1c(F)ccc2cc(O)cc(-c3ncc4c(N5CCC(C#N)CC5)nc(OC[C@@]56CCCN5C[C@H](F)C6)nc4c3F)c12 [Example 544, 1-(7-(8-ethyl-7-fluoro-3-hydroxynaphthalen-1-yl)-8-fluoro-2-(((2R,7aS)-2-fluorohexahydro-1H-pyrrolizin-7a-yl)methoxy)pyrido[4,3-d]pyrimidin-4-yl)piperidine-4-carbonitrile]	59%	46%	5%	67%	-13%	30%	–
< 2 nM	< 2 nM	< 2 nM	21 nM	6220 nM	–	109 nM	247 nM	121 nM	196 nM	CCc1c(F)ccc2cc(O)cc(-c3ncc4c(N5CCCC6(CNC(=O)N6)C5)nc(OC[C@]56CCCN5[C@H](COC(=O)N(C)C)CC6)nc4c3F)c12 (stereo partly drawn) [Example 711, ((3S,7aR)-7a-(((7-(8-ethyl-7-fluoro-3-hydroxynaphthalen-1-yl)-8-fluoro-4-(2-oxo-1,3,7-triazaspiro[4.5]decan-7-yl)pyrido[4,3-d]pyrimidin-2-yl)oxy)methyl)hexahydro-1H-pyrrolizin-3-yl)methyl dimethylcarbamate]	43%	–	–	78%	–	–	–
< 2 nM	< 2 nM	< 2 nM	6 nM	1760 nM	–	–	–	19 nM	47 nM	CCc1c(F)ccc2cc(O)cc(-c3ncc4c(N5CCC[C@@](C)(O)C5)nc(OC[C@]56CCCN5[C@H](CNS(=O)(=O)N(C)C)CC6)nc4c3F)c12 [Example 720, N,N-dimethyl-(((3S,7aR)-7a-(((7-(8-ethyl-7-fluoro-3-hydroxynaphthalen-1-yl)-8-fluoro-4-((R)-3-hydroxy-3-methylpiperidin-1-yl)pyrido[4,3-d]pyrimidin-2-yl)oxy)methyl)hexahydro-1H-pyrrolizin-3-yl)methyl)aminosulfonamide]	64%	80%	51%	85%	70%	43%	–
< 2 nM	2 nM	< 2 nM	14 nM	3080 nM	–	–	–	69 nM	83 nM	C#Cc1c(F)ccc2cc(O)cc(-c3ncc4c(N5CCC[C@@](C)(O)C5)nc(OC[C@]56CCCN5[C@H](COC(=O)N(C)C)CC6)nc4c3F)c12 [Example 753, ((3S,7aR)-7a-(((7-(8-ethynyl-7-fluoro-3-hydroxynaphthalen-1-yl)-8-fluoro-4-((R)-3-hydroxy-3-methylpiperidin-1-yl)pyrido[4,3-d]pyrimidin-2-yl)oxy)methyl)hexahydro-1H-pyrrolizin-3-yl)methyl dimethylcarbamate]	2%	42%	23%	76%	–	–	–
2 nM	< 2 nM	< 2 nM	123 nM	2340 nM	924 nM	434 nM	506 nM	852 nM	138 nM	O=C1CC2(CCCN(c3nc(OC[C@@]45CCCN4C[C@H](F)C5)nc4c(F)c(-c5cc(O)cc6ccc(F)c(Cl)c56)ncc34)C2)C(=O)N1 (stereo partly drawn) [Example 774, 7-(7-(8-chloro-7-fluoro-3-hydroxynaphthalen-1-yl)-8-fluoro-2-(((2R,7aS)-2-fluorohexahydro-1H-pyrrolizin-7a-yl)methoxy)pyrido[4,3-d]pyrimidin-4-yl)-2,7-diazaspiro[4.5]decane-1,3-dione]	–	–	–	–	–	–	IC50 [8]: 121 nM
2 nM	5 nM	2 nM	19 nM	9780 nM	–	–	–	52 nM	187 nM	CCc1c(F)ccc2cc(O)cc(-c3ncc4c(N5CCC[C@@](C)(O)C5)nc(OCC5(CN(C)C)CC56CC6)nc4c3F)c12 (stereo partly drawn) [Example 783, (3R)-1-(2-((1-((dimethylamino)methyl)spiro[2.2]pentan-1-yl)methoxy)-7-(8-ethyl-7-fluoro-3-hydroxynaphthalen-1-yl)-8-fluoropyrido[4,3-d]pyrimidin-4-yl)-3-methylpiperidin-3-ol]	34%	47%	31%	62%	47%	12%	–
2 nM	4 nM	< 2 nM	13 nM	2840 nM	–	–	–	73 nM	211 nM	CCc1c(F)ccc2cc(O)cc(-c3ncc4c(N5CCC[C@@](C)(O)C5)nc(OC[C@@]56CCCN5[C@@H](CNS(=O)(=O)N(C)C)CC6)nc4c3F)c12 [Example 788, (R)-1-(7-(8-ethyl-7-fluoro-3-hydroxynaphthalen-1-yl)-8-fluoro-2-(((3R,7aS)-3-(((dimethylsulfamoyl)amino)methyl)tetrahydro-1H-pyrrolizin-7a(5H)-yl)methoxy)pyrido[4,3-d]pyrimidin-4-yl)-3-methylpiperidin-3-ol]	38%	47%	33%	75%	45%	41%	–
< 2 nM	< 2 nM	< 2 nM	6 nM	1750 nM	–	–	–	32 nM	116 nM	CCc1c(F)ccc2cc(O)cc(-c3ncc4c(N5CCC[C@@](C)(O)C5)nc(OC[C@@]56CCCN5[C@H](CNS(=O)(=O)N(C)C)CC6)nc4c3F)c12 [Example 789, (R)-1-(7-(8-ethyl-7-fluoro-3-hydroxynaphthalen-1-yl)-8-fluoro-2-(((3S,7aS)-3-(((dimethylsulfamoyl)amino)methyl)tetrahydro-1H-pyrrolizin-7a(5H)-yl)methoxy)pyrido[4,3-d]pyrimidin-4-yl)-3-methylpiperidin-3-ol]	57%	76%	55%	97%	77%	43%	–
